Consider two compounds from ChEMBL document CHEMBL1201862, “PubChem BioAssay data set” (2004).

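The compound was tested at five concentrations on cells cultured in 96-well plates, with a 48-hour exposure period. GI50 is the concentration that inhibits growth by half.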 Activity calls are given as the source filed them. Rule as the data show it: active = GI50 up to about 1.1 µM and inactive = higher.

Test in all cases: NCI-60 cell line screen, 48 h
In experiment [1] the test system is NCI-H226.
Experiment [2] has as its system UO-31.
Experiment [3] deals with OVCAR-4.
For experiment [4], the system named is BT-549.
In experiment [5] the test system is SN12C.
Experiment [6] deals with SF-268.
For experiment [7], the system named is HT-29.
Experiment [8] has as its system SF-295.
The subject of experiment [9] is SW-620.
In experiment [10] the test system is SK-OV-3.
The test system of experiment [11] is DU-145.
Experiment [12] concerns A498.
Experiment [13] deals with Malme-3M.
The test system of experiment [14] is U-251.
The test system of experiment [15] is KM12.
Experiment [16] concerns CCRF-CEM.
In experiment [17] the test system is M14.
Experiment [18] has as its system T47D.
Experiment [19] relates to IGROV-1.
For experiment [20], the system named is SNB-19.

Regarding `O=C1C(CO)=C(CO)C(=O)c2c(O)ccc(O)c21`, the GI50 in experiment [1] was 2.15 µM (inactive); in experiment [2], 1 µM (active); in experiment [3], 0.234 µM (active); in [4], 0.204 µM (active); in [5], 0.287 µM (active); in [6], 0.649 µM (active). Besides, the GI50 is 0.105 µM (active) in experiment [7]; 1.69 µM (inactive) in [8]; 0.082 µM (active) in [9]; 7.23 µM (inactive) in experiment [10]; 1.85 µM (inactive) in [11]; 1.69 µM (inactive) in experiment [12]. In addition, the GI50 was 0.217 µM (active) in [13]; 2.22 µM (inactive) in experiment [14]; 1.61 µM (inactive) in [15]; 0.0575 µM (active) in [16]; 0.143 µM (active) in experiment [17]; 0.363 µM (active) in [18]. In addition, the GI50 in experiment [19] was 1.68 µM (inactive); in experiment [20], 2.88 µM (inactive).
For the compound `CN(C)c1ccc(/C=C2\C[N+](C)(C)C/C(=C\c3ccc(N(C)C)cc3)C2=O)cc1`, the GI50 in [1] was 30.5 µM (inactive); in experiment [2], > 100 µM (inactive); in experiment [3], 21.5 µM (inactive); in [4], 10.5 µM (inactive); in [5], 20.5 µM (inactive); in experiment [6], 19.2 µM (inactive). Moreover, the GI50 in experiment [7] is 9.18 µM (inactive); in [8], 31.6 µM (inactive); in experiment [9] it was 15.3 µM (inactive); in [10], 26.7 µM (inactive); in [11], 31.3 µM (inactive); in experiment [12], > 100 µM (inactive). The GI50 is 22.1 µM (inactive) in experiment [13]; 6.27 µM (inactive) in experiment [14]; 6.14 µM (inactive) in experiment [15]; 9.53 µM (inactive) in experiment [16]; 20.3 µM (inactive) in experiment [17]; 16.5 µM (inactive) in experiment [18]. In addition, the values for the GI50 in experiment [19] and in experiment [20] were 8.57 µM (inactive) and 17.5 µM (inactive), respectively.
